Reference: patent publication US20130288989A1, “NEW USE OF CHEMICAL INGREDIENTS IN CYNOMORIUM AS PHYTOESTROGEN” (TIANJIN UNIVERSITY OF TRADITIONAL CHINESE MEDICINE, priority 2010, published 2013)
“Also recorded” adds a separate entry of the source.

Key:
Type in all cases: cell-based
[1] = biological target: T1, ERα (Homo sapiens, UniProt P03372); experiment: ERα luciferase reporter gene transcription activation in transfected Hela cells; settings: for ERα (% of the control) mean ± S.D. / ERα (% of estradiol): Hela cells; for ERα (% of the control) mean ± S.D.: 24 h; for ERα (% of estradiol): estradiol at 10^−8M; for concentration at which the transcriptional activity of ERα is agonized: luciferase reporter gene
T1 construct: expressed in transfected cells; host or cells: Hela cells (ER expression free)
T1 sequence (P03372 1-595): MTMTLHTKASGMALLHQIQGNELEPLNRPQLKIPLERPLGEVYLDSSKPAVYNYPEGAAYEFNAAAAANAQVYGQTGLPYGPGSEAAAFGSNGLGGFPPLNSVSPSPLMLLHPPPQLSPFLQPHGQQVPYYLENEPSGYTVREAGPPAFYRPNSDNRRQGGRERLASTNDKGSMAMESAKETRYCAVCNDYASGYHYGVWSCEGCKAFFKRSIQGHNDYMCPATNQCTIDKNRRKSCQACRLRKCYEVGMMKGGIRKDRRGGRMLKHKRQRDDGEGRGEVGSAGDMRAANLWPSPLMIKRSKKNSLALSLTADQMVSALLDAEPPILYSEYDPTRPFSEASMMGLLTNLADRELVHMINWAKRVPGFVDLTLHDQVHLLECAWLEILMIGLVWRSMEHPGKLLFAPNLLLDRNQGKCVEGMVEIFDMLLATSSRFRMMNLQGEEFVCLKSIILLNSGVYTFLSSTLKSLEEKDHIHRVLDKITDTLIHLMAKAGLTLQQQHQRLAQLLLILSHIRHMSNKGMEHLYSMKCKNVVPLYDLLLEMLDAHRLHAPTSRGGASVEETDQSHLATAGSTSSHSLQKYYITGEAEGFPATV
Source text: (§1) Actually, estrogens show their biological activity by regulating estrogen responding genetic transcription.
(§2) Formulation of sample solutions of catechin, (−)epicatechin-3-O-gallate, naringenin-4′-O-glucoside, phlorizin, emodin, chrysophanol (separately obtained from Example 1):
(§3) Catechin, (−)epicatechin-3-O-gallate, naringenin-4′-O-glucoside, phlorizin, emodin, chrysophanol in corresponding weights were separately weighed precisely, than added with DMSO for dissolution, the corresponding sample solution high dose groups (10 μM or 1 μM), were diluted in certain times to separately obtain low dose groups (1 μM to 0.001 μM).
(§4) Under condition of 37° C. and 5% CO2, Hela cells were cultured in phenol red-free high sugar DMEM culture medium containing 10% calf serum in incubator, the cells were spread in 60% density on 96-well plate when cell density was about 90%, each well was added with 150 ul of phenol red-free DMEM culture medium containing 10% serum, cultivation was performed overnight. To each well of the 96-well plate, 100 ul of serum-free DMEM culture medium and 0.4 μg plasmid (ptk-ERE-luc 2 μg, tk-Renila 1 μg, ERα or ERβ 1 μg) were used for transfection. After 6 h of transfection, each well was added with 150 ul of serum-free phenol red-free DMEM culture medium. Three wells were selected form each group, added with 10^−8M estradiol E2, and substance to be tested in different concentrations, 15 ul/well (sample 4-5 concentration gradient groups), continuously cultured under condition of 37° C., 5% CO2 for 24 h. After 24 h, each well was added with 80 μl of cell disruption solution, and the cells were subjected to freeze thawing once to be sufficiently disrupted. As for the cell lysis solution of each well, its activities to firefly luciferase and Renila luciferase were separately measured.

[2] = biological target: T2, ERβ (Homo sapiens, UniProt Q92731); experiment: ERβ luciferase reporter gene transcription activation in transfected Hela cells; settings: for ERβ (% of the control) mean ± S.D. / ERβ (% of estradiol): Hela cells; for ERβ (% of the control) mean ± S.D.: 24 h; for ERβ (% of estradiol): estradiol at 10^−8M; for concentration at which the transcriptional activity of ERβ is agonized: luciferase reporter gene
T2 construct: expressed in transfected cells; host or cells: Hela cells (ER expression free)
T2 sequence (Q92731 whole entry): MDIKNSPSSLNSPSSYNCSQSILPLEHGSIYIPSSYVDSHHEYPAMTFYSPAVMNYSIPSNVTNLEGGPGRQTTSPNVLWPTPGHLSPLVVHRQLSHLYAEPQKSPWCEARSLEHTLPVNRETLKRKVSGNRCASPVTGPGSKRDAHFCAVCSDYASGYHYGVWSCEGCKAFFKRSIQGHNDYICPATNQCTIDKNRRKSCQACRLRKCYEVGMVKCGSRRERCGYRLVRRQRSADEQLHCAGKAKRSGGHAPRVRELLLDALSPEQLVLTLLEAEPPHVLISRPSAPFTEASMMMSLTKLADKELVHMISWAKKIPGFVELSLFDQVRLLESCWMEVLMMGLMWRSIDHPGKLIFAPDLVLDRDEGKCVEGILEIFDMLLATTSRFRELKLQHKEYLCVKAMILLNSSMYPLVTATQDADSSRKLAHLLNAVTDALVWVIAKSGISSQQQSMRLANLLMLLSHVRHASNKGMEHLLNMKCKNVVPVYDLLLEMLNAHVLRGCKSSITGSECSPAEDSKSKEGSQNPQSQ
Source text: as §1, §2, §3, §4

[3] = tested on: estrogen receptor; experiment: Estrogen receptor activation test: overall estrogen activity and ERβ versus ERα comparison; settings: for ERβ/ERα (both % of estradiol at 10^−8M): Hela cells; for estrogen activity / estrogen receptor activation (in words): estradiol as positive control; for selectivity to receptor subtypes (ERα vs ERβ): result in words
Protocol: as §1, §4

Compound	ERα (% of the control) mean ± S.D. ([1]; 10^−5 M)	ERα (% of estradiol) ([1]; 10^−5 M)	ERα (% of the control) mean ± S.D. ([1]; 10^−6 M)	ERα (% of estradiol) ([1]; 10^−6 M)	ERα (% of the control) mean ± S.D. ([1]; 10^−7 M)	ERα (% of estradiol) ([1]; 10^−7 M)	ERα (% of the control) mean ± S.D. ([1]; 10^−8 M)	ERα (% of estradiol) ([1]; 10^−8 M)	concentration at which the transcriptional activity of ERα is agonized [1]	ERβ (% of the control) mean ± S.D. ([2]; 10^−5 M)	ERβ (% of estradiol) ([2]; 10^−5 M)	ERβ (% of the control) mean ± S.D. ([2]; 10^−6 M)	ERβ (% of estradiol) ([2]; 10^−6 M)	ERβ (% of the control) mean ± S.D. ([2]; 10^−7 M)	ERβ (% of estradiol) ([2]; 10^−7 M)	ERβ (% of the control) mean ± S.D. ([2]; 10^−8 M)	ERβ (% of estradiol) ([2]; 10^−8 M)	concentration at which the transcriptional activity of ERβ is agonized [2]	ERβ/ERα (both % of estradiol at 10^−8M) ([3]; sample 10^−5 M)	ERβ/ERα (both % of estradiol at 10^−8M) ([3]; sample 10^−6 M)	further results
O=C(CCc1ccc(O)cc1)c1c(O)cc(O)cc1O[C@@H]1O[C@H](CO)[C@@H](O)[C@H](O)[C@H]1O [Phlorizin, phlorizin]	137.71 ± 8.44 % of the control	(72.38) % of estradiol	122.09 ± 11.33 % of the control	(64.17) % of estradiol	118.40 ± 4.20 % of the control	(62.23) % of estradiol	105.43 ± 13.57 % of the control	(55.41) % of estradiol	10^−6-10^−5 M	147.95 ± 10.29 % of the control	(80.17) % of estradiol	133.79 ± 5.45 % of the control	(72.50) % of estradiol	116.14 ± 8.86 % of the control	(62.93) % of estradiol	109.38 ± 8.72 % of the control	(59.27) % of estradiol	10^−6-10^−5 M	1.11	1.13	ERβ/ERα (both % of estradiol at 10^−8M) ([3]; sample 10^−7 M): 1.01; ERβ/ERα (both % of estradiol at 10^−8M) ([3]; sample 10^−8 M): 1.07; estrogen activity / estrogen receptor activation (in words) [3]: show relevance to estrogen receptor activation; also recorded: potent activity of estrogen; selectivity to receptor subtypes (ERα vs ERβ) [3]: no significant selectivity to receptor subtypes
catechin	128.00 ± 8.74 % of the control	(60.23) % of estradiol	108.85 ± 8.87 % of the control	(51.22) % of estradiol	106.72 ± 12.84 % of the control	(50.22) % of estradiol	102.89 ± 10.21 % of the control	(48.42) % of estradiol	10^−5 M	115.59 ± 13.39 % of the control	(59.86) % of estradiol	103.71 ± 9.07 % of the control	(53.71) % of estradiol	102.57 ± 1.04 % of the control	(53.12) % of estradiol	101.93 ± 2.27 % of the control	(52.79) % of estradiol	10^−5 M	1.28	1.05	ERβ/ERα (both % of estradiol at 10^−8M) ([3]; sample 10^−7 M): 1.06; ERβ/ERα (both % of estradiol at 10^−8M) ([3]; sample 10^−8 M): 1.09; estrogen activity / estrogen receptor activation (in words) [3]: show relevance to estrogen receptor activation; also recorded: potent activity of estrogen; selectivity to receptor subtypes (ERα vs ERβ) [3]: no significant selectivity to receptor subtypes
